Experimental data taken from US20240327364A1, “THERAPEUTIC TARGETING OF GPR68 TO INDUCE FERROPTOSIS” (University Of Maryland, Baltimore, priority 2023, published 2024).

Experiments:
PLK4 = target: T1, PLK4 (Homo sapiens, UniProt O00444); assay: KinomeScan; assay type: binding; settings: read-out: % Control
T1 construct: purchased DiscoveRx (Fremont, CA)

CSNK1G3 = CSNK1G3 (Homo sapiens, UniProt Q9Y6M4); assay: KinomeScan; assay type: binding; settings: read-out: % Control
EPHB6 = target: T2, EPHB6 (Homo sapiens, UniProt O15197); assay: KinomeScan; assay type: binding; settings: read-out: % Control
T2 construct: purchased DiscoveRx (Fremont, CA)

PIP5K2B = target: T3, PIP5K2B (Homo sapiens, UniProt P78356); assay: KinomeScan; assay type: binding; settings: read-out: % Control
T3 construct: purchased DiscoveRx (Fremont, CA)

MAST1 = target: T4, MAST1 (Homo sapiens, UniProt Q9Y2H9); assay: KinomeScan; assay type: binding; settings: read-out: % Control
T4 construct: purchased DiscoveRx (Fremont, CA)

SRMS = target: T5, SRMS (Homo sapiens, UniProt Q9H3Y6); assay: KinomeScan; assay type: binding; settings: read-out: % Control
T5 construct: purchased DiscoveRx (Fremont, CA)

ERK5 = target: T6, ERK5 (Homo sapiens, UniProt Q13164); assay: KinomeScan; assay type: binding; settings: read-out: % Control
T6 construct: purchased DiscoveRx (Fremont, CA)

CysLT2 = target: T7, CysLT2 (Homo sapiens, UniProt Q9NS75); assay: GPCR Profiler; assay type: cell-based
T7 construct: host or cells: Chem-1 cells with Gα15
T7 sequence (Q9NS75 whole entry, species assumed): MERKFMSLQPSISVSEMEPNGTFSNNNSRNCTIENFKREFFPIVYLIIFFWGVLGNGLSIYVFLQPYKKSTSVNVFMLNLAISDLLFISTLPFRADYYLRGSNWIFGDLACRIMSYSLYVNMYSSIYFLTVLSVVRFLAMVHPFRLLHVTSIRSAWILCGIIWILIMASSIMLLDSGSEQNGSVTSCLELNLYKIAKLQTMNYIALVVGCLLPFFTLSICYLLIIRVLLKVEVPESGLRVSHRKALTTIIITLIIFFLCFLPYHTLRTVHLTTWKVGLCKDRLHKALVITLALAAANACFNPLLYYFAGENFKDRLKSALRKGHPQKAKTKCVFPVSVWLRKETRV

PFTK1 = target: T8, PFTK1 (Homo sapiens, UniProt O94921); assay: KinomeScan; assay type: binding; settings: read-out: % Control
T8 construct: purchased DiscoveRx (Fremont, CA)

M5 = target: T9, M5 (Homo sapiens, UniProt P08912); assay: GPCR Profiler; assay type: cell-based
T9 construct: host or cells: Chem-1 cells with promiscuous Gα15
T9 sequence (P08912 whole entry): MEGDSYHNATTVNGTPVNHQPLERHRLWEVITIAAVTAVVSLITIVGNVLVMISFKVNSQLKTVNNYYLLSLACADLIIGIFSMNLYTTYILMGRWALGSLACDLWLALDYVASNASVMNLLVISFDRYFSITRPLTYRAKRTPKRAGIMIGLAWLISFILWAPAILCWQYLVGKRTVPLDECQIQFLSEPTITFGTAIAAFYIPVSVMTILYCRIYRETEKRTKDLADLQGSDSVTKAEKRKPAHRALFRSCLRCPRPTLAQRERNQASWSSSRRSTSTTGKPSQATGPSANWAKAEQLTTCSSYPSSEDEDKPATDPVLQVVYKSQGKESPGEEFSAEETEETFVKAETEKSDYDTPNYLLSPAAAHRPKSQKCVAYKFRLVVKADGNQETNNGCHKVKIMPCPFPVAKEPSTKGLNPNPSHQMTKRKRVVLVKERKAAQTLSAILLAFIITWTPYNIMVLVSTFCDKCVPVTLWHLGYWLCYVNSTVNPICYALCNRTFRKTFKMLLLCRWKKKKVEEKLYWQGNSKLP

LIMK2 = target: T10, LIMK2 (Homo sapiens, UniProt P53671); assay: KinomeScan; assay type: binding; settings: read-out: % Control
T10 construct: purchased DiscoveRx

CXCR2 = target: T11, CXCR2 (Homo sapiens, UniProt P25025); assay: GPCR Profiler; assay type: cell-based
T11 construct: host or cells: Chem-1 cells with Gα15
T11 sequence (P25025 whole entry, species assumed): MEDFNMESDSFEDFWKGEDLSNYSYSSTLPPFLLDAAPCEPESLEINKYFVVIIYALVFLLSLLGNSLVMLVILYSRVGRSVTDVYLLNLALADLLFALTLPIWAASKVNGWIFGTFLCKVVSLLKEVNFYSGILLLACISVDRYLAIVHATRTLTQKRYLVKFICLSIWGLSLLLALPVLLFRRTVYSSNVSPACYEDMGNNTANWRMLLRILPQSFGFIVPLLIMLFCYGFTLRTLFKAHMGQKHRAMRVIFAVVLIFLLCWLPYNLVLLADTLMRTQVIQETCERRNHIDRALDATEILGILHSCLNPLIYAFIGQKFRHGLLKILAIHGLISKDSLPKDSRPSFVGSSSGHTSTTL

TNIK = target: T12, TNIK (Homo sapiens, UniProt Q9UKE5); assay: KinomeScan; assay type: binding; settings: read-out: % Control
T12 construct: purchased DiscoveRx (Fremont, CA)
T12 sequence (Q9UKE5 whole entry): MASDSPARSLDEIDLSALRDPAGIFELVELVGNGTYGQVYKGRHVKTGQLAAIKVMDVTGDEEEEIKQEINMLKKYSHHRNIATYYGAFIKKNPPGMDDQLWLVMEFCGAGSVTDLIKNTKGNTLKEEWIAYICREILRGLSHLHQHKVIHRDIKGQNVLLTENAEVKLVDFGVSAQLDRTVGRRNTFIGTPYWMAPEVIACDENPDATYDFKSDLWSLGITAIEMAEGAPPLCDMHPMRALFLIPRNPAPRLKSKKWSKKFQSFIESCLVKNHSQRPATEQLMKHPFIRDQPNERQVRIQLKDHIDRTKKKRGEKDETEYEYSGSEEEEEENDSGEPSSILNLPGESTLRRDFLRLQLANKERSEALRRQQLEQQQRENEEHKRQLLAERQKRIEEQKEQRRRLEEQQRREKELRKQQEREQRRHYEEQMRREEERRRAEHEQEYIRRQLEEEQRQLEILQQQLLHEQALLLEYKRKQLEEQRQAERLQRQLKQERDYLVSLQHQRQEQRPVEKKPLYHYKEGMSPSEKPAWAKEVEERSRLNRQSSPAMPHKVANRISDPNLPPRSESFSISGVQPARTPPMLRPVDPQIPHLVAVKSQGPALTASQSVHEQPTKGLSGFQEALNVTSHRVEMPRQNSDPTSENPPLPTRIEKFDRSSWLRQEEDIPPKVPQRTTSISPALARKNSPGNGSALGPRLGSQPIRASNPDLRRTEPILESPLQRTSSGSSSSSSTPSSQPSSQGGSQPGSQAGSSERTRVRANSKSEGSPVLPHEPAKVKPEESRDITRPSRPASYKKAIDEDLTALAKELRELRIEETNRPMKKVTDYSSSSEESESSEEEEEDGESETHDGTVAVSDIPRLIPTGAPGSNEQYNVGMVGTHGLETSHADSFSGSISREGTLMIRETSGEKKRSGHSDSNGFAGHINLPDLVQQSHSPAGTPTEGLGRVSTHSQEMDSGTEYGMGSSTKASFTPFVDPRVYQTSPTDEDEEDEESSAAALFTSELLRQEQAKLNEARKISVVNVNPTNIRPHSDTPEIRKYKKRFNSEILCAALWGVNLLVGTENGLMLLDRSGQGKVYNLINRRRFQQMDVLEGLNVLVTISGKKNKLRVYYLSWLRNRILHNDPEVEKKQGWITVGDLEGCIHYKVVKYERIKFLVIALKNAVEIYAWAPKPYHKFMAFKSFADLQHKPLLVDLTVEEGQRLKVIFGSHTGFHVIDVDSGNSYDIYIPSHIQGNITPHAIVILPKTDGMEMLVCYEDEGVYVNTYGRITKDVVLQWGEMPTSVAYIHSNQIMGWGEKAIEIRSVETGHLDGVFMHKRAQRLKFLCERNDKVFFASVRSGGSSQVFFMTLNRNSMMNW

ADCK3 = target: T13, ADCK3 (Homo sapiens, UniProt Q8NI60); assay: KinomeScan; assay type: binding; settings: read-out: % Control
T13 construct: purchased DiscoveRx (Fremont, CA)

GPR99 = target: T14, GPR99 (Homo sapiens, UniProt Q96P68); assay: GPCR Profiler; assay type: cell-based
T14 construct: host or cells: Chem-1 cells with promiscuous Gα15

ACVR1B = target: T15, ACVR1B (Homo sapiens, UniProt P36896); assay: KinomeScan; assay type: binding; settings: read-out: % Control
T15 construct: purchased DiscoveRx

GSK3A = target: T16, GSK3A (Homo sapiens, UniProt P49840); assay: KinomeScan; assay type: binding; settings: read-out: % Control
T16 construct: purchased DiscoveRx (Fremont, CA)
T16 sequence (P49840 whole entry): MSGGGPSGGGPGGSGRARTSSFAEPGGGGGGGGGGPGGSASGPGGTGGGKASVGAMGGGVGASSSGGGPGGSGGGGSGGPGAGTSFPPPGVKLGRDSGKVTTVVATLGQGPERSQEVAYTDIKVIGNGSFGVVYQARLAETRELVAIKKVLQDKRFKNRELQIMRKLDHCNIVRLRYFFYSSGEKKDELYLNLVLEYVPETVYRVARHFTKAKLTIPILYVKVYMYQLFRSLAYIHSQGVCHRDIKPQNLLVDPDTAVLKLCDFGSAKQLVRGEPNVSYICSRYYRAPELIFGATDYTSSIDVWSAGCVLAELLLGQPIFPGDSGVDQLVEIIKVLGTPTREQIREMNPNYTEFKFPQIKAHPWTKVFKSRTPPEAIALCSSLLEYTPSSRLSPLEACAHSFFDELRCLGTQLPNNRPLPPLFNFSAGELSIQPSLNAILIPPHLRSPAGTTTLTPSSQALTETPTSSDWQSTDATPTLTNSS

CSNK1E = CSNK1E (Homo sapiens, UniProt P49674); assay: KinomeScan; assay type: binding; settings: read-out: % Control
Chain of CSNK1E (P49674 whole entry): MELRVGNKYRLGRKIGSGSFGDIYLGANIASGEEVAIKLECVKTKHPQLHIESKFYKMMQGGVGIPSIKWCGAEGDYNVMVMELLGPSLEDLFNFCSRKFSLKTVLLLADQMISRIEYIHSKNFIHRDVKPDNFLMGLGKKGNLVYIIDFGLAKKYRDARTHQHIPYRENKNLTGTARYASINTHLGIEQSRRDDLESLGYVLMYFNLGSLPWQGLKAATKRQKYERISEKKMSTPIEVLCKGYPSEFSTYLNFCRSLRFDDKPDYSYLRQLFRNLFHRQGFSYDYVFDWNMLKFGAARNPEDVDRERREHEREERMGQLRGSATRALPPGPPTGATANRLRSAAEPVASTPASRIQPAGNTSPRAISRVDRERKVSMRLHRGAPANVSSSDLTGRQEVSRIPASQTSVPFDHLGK

ALK = target: T17, ALK (Homo sapiens, UniProt Q9UM73); assay: KinomeScan; assay type: binding; settings: read-out: % Control
T17 construct: purchased DiscoveRx (Fremont, CA)

CDKL2 = CDKL2 (Homo sapiens, UniProt Q92772); assay: KinomeScan; assay type: binding; settings: read-out: % Control
AKT2 = target: T18, AKT2 (Homo sapiens, UniProt P31751); assay: KinomeScan; assay type: binding; settings: read-out: % Control
T18 construct: purchased DiscoveRx (Fremont, CA)
T18 sequence (P31751 whole entry): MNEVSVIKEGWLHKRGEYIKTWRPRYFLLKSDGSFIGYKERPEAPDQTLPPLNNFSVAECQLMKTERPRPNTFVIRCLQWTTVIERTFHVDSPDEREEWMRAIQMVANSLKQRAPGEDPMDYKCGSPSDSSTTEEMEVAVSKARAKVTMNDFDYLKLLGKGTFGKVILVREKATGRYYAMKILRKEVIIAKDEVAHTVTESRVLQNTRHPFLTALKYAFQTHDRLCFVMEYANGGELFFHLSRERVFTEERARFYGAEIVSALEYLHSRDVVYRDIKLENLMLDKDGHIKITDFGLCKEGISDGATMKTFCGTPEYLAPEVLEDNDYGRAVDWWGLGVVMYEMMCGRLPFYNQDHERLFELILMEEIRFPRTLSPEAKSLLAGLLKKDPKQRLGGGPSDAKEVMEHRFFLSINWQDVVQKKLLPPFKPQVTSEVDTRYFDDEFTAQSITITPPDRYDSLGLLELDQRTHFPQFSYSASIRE

BMPR2 = target: T19, BMPR2 (Homo sapiens, UniProt Q13873); assay: KinomeScan; assay type: binding; settings: read-out: % Control
T19 construct: purchased DiscoveRx (Fremont, CA)

GLP-2 = target: T20, GLP-2 (Homo sapiens, UniProt O95838); assay: GPCR Profiler; assay type: cell-based
T20 construct: host or cells: Chem-1 cells expressing Gα15
T20 sequence (O95838 whole entry): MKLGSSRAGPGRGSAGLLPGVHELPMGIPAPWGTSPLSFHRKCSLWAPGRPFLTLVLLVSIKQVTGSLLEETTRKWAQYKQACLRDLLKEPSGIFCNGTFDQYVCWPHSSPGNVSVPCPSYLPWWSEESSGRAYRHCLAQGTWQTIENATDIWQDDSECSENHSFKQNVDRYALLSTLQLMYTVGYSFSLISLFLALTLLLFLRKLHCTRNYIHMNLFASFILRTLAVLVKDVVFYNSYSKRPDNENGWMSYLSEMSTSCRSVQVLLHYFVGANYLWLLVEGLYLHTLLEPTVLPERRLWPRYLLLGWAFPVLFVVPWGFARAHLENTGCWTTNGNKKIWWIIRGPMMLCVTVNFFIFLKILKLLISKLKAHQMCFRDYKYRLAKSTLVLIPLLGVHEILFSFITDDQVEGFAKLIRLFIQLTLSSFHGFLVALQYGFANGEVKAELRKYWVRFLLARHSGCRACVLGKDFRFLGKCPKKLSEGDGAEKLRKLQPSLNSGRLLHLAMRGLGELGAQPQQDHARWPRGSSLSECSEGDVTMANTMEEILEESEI

FGR = target: T21, FGR (Homo sapiens, UniProt P09769); assay: KinomeScan; assay type: binding; settings: read-out: % Control
T21 construct: purchased DiscoveRx (Fremont, CA)

A549 = assay: Crystal violet viability, 24 hours; assay type: cell-based
Description: A549 lung cancer cells were plated at different concentrations of cell per well in a 96-well plate. On the following day cells were treated with increasing doses of OGM2. Twenty-four hours later cells viability was assayed with crystal violet and normalized to untreated.

DU145 = assay: Liperfluo lipid peroxidation; assay type: cell-based, human
Excerpt: (§1) OGM2 kills prostate cancer cells by inducing ferroptosis (FIG. 100). […] OGM2 induces ferroptosis in DU145 cells (FIG. 100A) and PC3 cells (FIG. 100C) based on Liperfluo™ lipid peroxidation assay. Erastin, a cystine-glutamate antiporter system Xc^− inhibitor, is a positive control ferroptosis inducer.

PC3 = assay: Liperfluo lipid peroxidation; assay type: cell-based, human
Excerpt: as §1

HKSA-induced ALI = assay: HKSA-induced acute lung injury; assay type: in vivo, C57Bl mice; settings: OGM2 40 mg/kg
Description: FIG. 37A through FIG. 37D: OGM2 attenuates HKSA- and LPS-induced acute lung injury (ALI) in vivo. FIG. 37A: GPR68 mRNA is markedly elevated in lungs, heart and brain of HKSA-challenged (5×10^7/kg, i/n, 18 hr) C57Bl mice). FIG. 37B: LPS (0.7 mg/kg intratracheal) and […] ALI in mice markedly increases mRNA expression of GPR68, relative to GPR4, GPR65, and GPR132; *p<0.01 vs. vehicle; n=3.

Chain of CSNK1G3 (Q9Y6M4 whole entry): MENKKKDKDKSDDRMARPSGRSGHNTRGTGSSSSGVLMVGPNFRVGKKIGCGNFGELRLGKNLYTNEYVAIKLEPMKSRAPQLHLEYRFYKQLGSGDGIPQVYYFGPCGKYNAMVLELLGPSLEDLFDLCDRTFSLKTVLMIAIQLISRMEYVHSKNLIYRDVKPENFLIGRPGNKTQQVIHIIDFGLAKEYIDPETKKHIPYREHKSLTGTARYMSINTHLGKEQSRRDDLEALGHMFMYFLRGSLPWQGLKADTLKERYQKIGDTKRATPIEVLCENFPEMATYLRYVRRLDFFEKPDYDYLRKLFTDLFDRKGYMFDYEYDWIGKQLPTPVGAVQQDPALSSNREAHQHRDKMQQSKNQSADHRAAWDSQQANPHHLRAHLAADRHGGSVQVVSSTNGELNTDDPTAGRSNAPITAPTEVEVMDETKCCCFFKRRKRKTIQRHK

Structure (SMILES): CCc1ccc2c(c1)C1(NN=C(c3cccc4ccccc34)S1)C(=O)N2 (stereo not shown) [OGM1, 5-ethyl-5′-naphthalen-1-ylspiro[1H-indole-3,2′-3H-1,3,4-thiadiazole]-2-one]
- remaining binding at 10 µM (PLK4): 71%
- remaining binding at 10 µM (CSNK1G3): 100%
- remaining binding at 10 µM (EPHB6): 76%
- remaining binding at 10 µM (PIP5K2B): 100%
- remaining binding at 10 µM (MAST1): 58%
- remaining binding at 10 µM (SRMS): 80%
- remaining binding at 10 µM (ERK5): 89%
- Antagonism (CysLT2; 10 uM): −7.1
- Agonism (CysLT2; 12.5 uM): −0.3
- remaining binding at 10 µM (PFTK1): 92%
- Antagonism (M5; 10 uM): 3.4
- Agonism (M5; 12.5 uM): −0.6
- remaining binding at 10 µM (LIMK2): 100%
- Antagonism (CXCR2; 10 uM): −3.1
- Agonism (CXCR2; 12.5 uM): 0.5
- remaining binding at 10 µM (TNIK): 71%
- remaining binding at 10 µM (ADCK3): 100%
- Antagonism (GPR99; 10 uM): 0.5
- Agonism (GPR99; 12.5 uM): 6.5
- remaining binding at 10 µM (ACVR1B): 100%
- remaining binding at 10 µM (GSK3A): 78%
- remaining binding at 10 µM (CSNK1E): 91%
- remaining binding at 10 µM (ALK): 100%
- remaining binding at 10 µM (CDKL2): 100%
- remaining binding at 10 µM (AKT2): 93%
- remaining binding at 10 µM (BMPR2): 92%
- Antagonism (GLP-2; 10 uM): 2.1
- Agonism (GLP-2; 12.5 uM): −0.2
- remaining binding at 10 µM (FGR): 100%

Structure (SMILES): CCc1ccc2c(c1)C1(NN=C(c3ccccc3)S1)C(=O)N2 (stereo not shown) [OGM2]
- toxicity (A549): relatively High doses of OGM2 are necessary for toxicity in A549 cells
- lipid peroxidation (DU145): significantly increased lipid peroxidation
- lipid peroxidation (PC3): significantly increased lipid peroxidation
- lung vascular leak (Evans blue-labeled albumin) (HKSA-induced ALI; 3 hr post administration): significantly attenuated
- inflammatory cytokine (TNFα, IL-6, KC, IL-1β) transcripts in the lungs (HKSA-induced ALI; i.p.): significantly attenuated induction
